Measurements reported in patent US10519134B2, “Pyrazole compounds and methods of making and using same” (Lundbeck La Jolla Research Center, Inc., priority 2015, dated 2019).
pIC50: −log10 of the molar value.

Legend:
MAGL [1] = biological target: T1, MAGL (Mus musculus, UniProt O35678); assay: In vitro competitive activity-based protein profiling (mouse), MAGL gel band; type: biochemical; settings: for pIC50: mouse; for inhibition at 1 µM: read-out: MAGL % inh. 1 μM
T1 construct: Proteomes (mouse brain membrane fraction or cell lysates); from tissue; host or cells: mouse brain membrane fraction (or cell lysates)
T1 sequence (O35678 1-303): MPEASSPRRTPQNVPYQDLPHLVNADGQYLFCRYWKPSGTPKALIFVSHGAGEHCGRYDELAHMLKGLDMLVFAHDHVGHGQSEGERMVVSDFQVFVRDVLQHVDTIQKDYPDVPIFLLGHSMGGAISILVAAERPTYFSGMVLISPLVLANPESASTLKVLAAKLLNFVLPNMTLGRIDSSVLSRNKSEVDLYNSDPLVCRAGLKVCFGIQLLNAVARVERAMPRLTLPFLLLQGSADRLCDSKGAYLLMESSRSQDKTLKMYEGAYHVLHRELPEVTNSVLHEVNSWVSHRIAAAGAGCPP
Procedure, shortened: (§1)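 Mouse brain membrane proteome or cell lysate (1.0 mg/mL total protein) was preincubated with varying inhibitor concentrations for 30 min at 37 °C, then labelled for 30 min at 37 °C with FP-Rh or HT-01 (50 μM stock in DMSO). Activity was read as fluorescent band intensity after SDS-PAGE.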

FAAH = biological target: T2, FAAH (Mus musculus, UniProt O08914); assay: In vitro competitive activity-based protein profiling (mouse), FAAH gel band; type: biochemical; settings: for pIC50: mouse; for inhibition at 1 µM: read-out: FAAH % inh. 1 μM
T2 construct: Proteomes (mouse brain membrane fraction or cell lysates); from tissue; host or cells: mouse brain membrane fraction (or cell lysates)
T2 sequence (O08914 1-579): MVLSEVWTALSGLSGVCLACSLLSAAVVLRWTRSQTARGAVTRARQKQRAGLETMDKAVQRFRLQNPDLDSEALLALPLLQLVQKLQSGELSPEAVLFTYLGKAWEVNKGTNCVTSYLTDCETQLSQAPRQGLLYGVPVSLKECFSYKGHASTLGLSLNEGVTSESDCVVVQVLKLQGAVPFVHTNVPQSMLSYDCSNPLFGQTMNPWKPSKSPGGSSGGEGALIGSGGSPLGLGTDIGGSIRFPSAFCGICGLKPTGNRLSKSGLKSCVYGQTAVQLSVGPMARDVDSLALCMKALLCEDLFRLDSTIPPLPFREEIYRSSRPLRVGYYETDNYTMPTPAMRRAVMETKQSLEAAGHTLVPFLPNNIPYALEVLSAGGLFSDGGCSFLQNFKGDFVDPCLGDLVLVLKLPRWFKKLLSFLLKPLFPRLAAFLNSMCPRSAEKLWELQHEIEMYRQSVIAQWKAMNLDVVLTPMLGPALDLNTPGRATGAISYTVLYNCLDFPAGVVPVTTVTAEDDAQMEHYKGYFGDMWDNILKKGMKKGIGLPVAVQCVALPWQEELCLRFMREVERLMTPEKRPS
Procedure, shortened: as §1

MAGL [2] = biological target: T1, MAGL; assay: Mouse brain proteomes from inhibitor treated mice (oral gavage, sacrificed 4 h after administration); type: in vivo; settings: read-out: MAGL % inh. 5 mg/kg
Procedure, shortened: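 Wild-type C57Bl/6J mice got compound by oral gavage in polyethylene glycol vehicle. Brain proteomes were prepared 4 h after dosing and analyzed for serine hydrolase activity.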

Row | SMILES | pIC50 (MAGL [1]) | inhibition at 1 µM (MAGL [1]) [%] | pIC50 (FAAH) | inhibition at 1 µM (FAAH) [%] | inhibition at 5 mg/kg (MAGL [2]) [%]
1 | CC(=O)Nc1ccn(C(=O)N2CCN(Cc3ccc(C(F)(F)F)cc3N3CCC4(C3)CN(S(C)(=O)=O)C4)CC2)n1 [Example 44, N-(1-(4-(2-(2-(methylsulfonyl)-2,6-diazaspiro[3.4]octan-6-yl)-4-(trifluoromethyl)benzyl)piperazine-1-carbonyl)-1H-pyrazol-3-yl)acetamide] | ≥ 7.00 | ≥ 75 | 5.00 to 6.00 | 0 to 25 | 0 to 25
2 | CC(=O)Nc1ccn(C(=O)N2CCC3(CCCN3Cc3ccc(C(F)(F)F)c(C)c3)CC2)n1 [Example 93, N-(1-(1-(3-methyl-4-(trifluoromethyl)benzyl)-1,8-diazaspiro[4.5]decane-8-carbonyl)-1H-pyrazol-3-yl)acetamide] | ≥ 7.00 | ≥ 75 | 5.00 to 6.00 | 0 to 25 | 50 to 75
3 | Cc1c(CN2CCCC23CCN(C(=O)n2ccc(NS(C)(=O)=O)n2)CC3)cccc1N1CCCCC1 [Example 142, N-(1-(1-(2-methyl-3-(piperidin-1-yl)benzyl)-1,8-diazaspiro[4.5]decane-8-carbonyl)-1H-pyrazol-3-yl) methanesulfonamide] | ≥ 7.00 | ≥ 75 | 5.00 to 6.00 | 0 to 25 | 0 to 25
4 | CC(=O)Nc1ccn(C(=O)N2CCN(Cc3ccc(C(F)(F)F)cc3N3CCCC3)CC2)n1 [Example 1, N-(1-(4-(2-(pyrrolidin-1-yl)-4-(trifluoromethyl)benzyl)piperazine-1-carbonyl)-1H-pyrazol-3-yl)acetamide] | ≥ 7.00 | ≥ 75 | 5.00 to 6.00 | 0 to 25 | ≥ 75
5 | CC(=O)Nc1ccn(C(=O)N2CCN(Cc3ccc(C(F)(F)F)cc3N3CC4CCC(C3)O4)CC2)n1 [Example 40, N-(1-(4-(2-(8-oxa-3-azabicyclo[3.2.1]octan-3-yl)-4-(trifluoromethyl)benzyl)piperazine-1-carbonyl)-1H-pyrazol-3-yl)acetamide] | ≥ 7.00 | ≥ 75 | 5.00 to 6.00 | 0 to 25 | 25 to 50
6 | CC(=O)Nc1ccn(C(=O)N2CCC3(CCCN3Cc3ccc(C(F)(F)F)cc3Oc3nc4ccccc4s3)CC2)n1 [Example 85, N-(1-(1-(2-(benzo[d]thiazol-2-yloxy)-4-(trifluoromethyl)benzyl)-1,8-diazaspiro[4.5]decane-8-carbonyl)-1H-pyrazol-3-yl)acetamide] | ≥ 7.00 | ≥ 75 | 5.00 to 6.00 | 0 to 25 | 0 to 25
7 | CC(=O)Nc1ccn(C(=O)N2CCC3(CCCN3Cc3ccc(C(F)(F)F)c(N4CCCC4)c3)CC2)n1 [Example 106, N-(1-(1-(3-(pyrrolidin-1-yl)-4-(trifluoromethyl)benzyl)-1,8-diazaspiro[4.5]decane-8-carbonyl)-1H-pyrazol-3-yl)acetamide] | ≥ 7.00 | ≥ 75 | 5.00 to 6.00 | 0 to 25 | 25 to 50
8 | CC(=O)Nc1ccn(C(=O)N2CCC3(CCCN3Cc3ccc(Cl)cc3N3CCCC3)CC2)n1 [Example 14, N-(1-(1-(4-chloro-2-(pyrrolidin-1-yl)benzyl)-1,8-diazaspiro[4.5]decane-8-carbonyl)-1H-pyrazol-3-yl)acetamide] | ≥ 7.00 | ≥ 75 | 5.00 to 6.00 | 0 to 25 | 25 to 50

Next, values leading:

Row | pIC50 (MAGL [1]) | inhibition at 1 µM (MAGL [1]) [%] | pIC50 (FAAH) | inhibition at 1 µM (FAAH) [%] | inhibition at 5 mg/kg (MAGL [2]) [%] | SMILES
9 | ≥ 7.00 | ≥ 75 | 5.00 to 6.00 | 0 to 25 | 0 to 25 | CC(=O)Nc1ccn(C(=O)N2CCC3(CCCN3Cc3ccc(Cl)cc3N3CC4CCC(C3)O4)CC2)n1 [Example 34, N-(1-(1-(2-(8-oxa-3-azabicyclo[3.2.1]octan-3-yl)-4-chlorobenzyl)-1,8-diazaspiro[4.5]decane-8-carbonyl)-1H-pyrazol-3-yl)acetamide]
10 | ≥ 7.00 | ≥ 75 | 5.00 to 6.00 | 0 to 25 | 0 to 25 | CC(=O)Nc1ccn(C(=O)N2CCN(Cc3ccc(Cl)cc3N3CCN(C(C)=O)CC3)CC2)n1 [Example 53, N-(1-(4-(2-(4-acetylpiperazin-1-yl)-4-chlorobenzyl)piperazine-1-carbonyl)-1H-pyrazol-3-yl)acetamide]
11 | ≥ 7.00 | ≥ 75 | 5.00 to 6.00 | 25 to 50 | 0 to 25 | CC(=O)Nc1ccn(C(=O)N2CCC3(CCCN3Cc3ccc(C(F)(F)F)cc3N3CCC(F)(F)CC3)CC2)n1 [Example 29, N-(1-(1-(2-(4,4-difluoropiperidin-1-yl)-4-(trifluoromethyl)benzyl)-1,8-diazaspiro[4.5]decane-8-carbonyl)-1H-pyrazol-3-yl)acetamide]
12 | ≥ 7.00 | ≥ 75 | 5.00 to 6.00 | 0 to 25 | 0 to 25 | CC(=O)Nc1ccn(C(=O)N2CCN(Cc3ccc(C(F)(F)F)cc3N3CCN(C(C)=O)CC3)CC2)n1 [Example 42, N-(1-(4-(2-(4-acetylpiperazin-1-yl)-4-(trifluoromethyl)benzyl)piperazine-1-carbonyl)-1H-pyrazol-3-yl)acetamide]
13 | ≥ 7.00 | ≥ 75 | 5.00 to 6.00 | 0 to 25 | 0 to 25 | CC(=O)Nc1ccn(C(=O)N2CCN(Cc3cc(OC4CCS(=O)(=O)CC4)cc(C(F)(F)F)c3)CC2)n1 [Example 78, N-(1-(4-(3-((1,1-dioxidotetrahydro-2H-thiopyran-4-yl)oxy)-5-(trifluoromethyl)benzyl)piperazine-1-carbonyl)-1H-pyrazol-3-yl)acetamide]
14 | ≥ 7.00 | ≥ 75 | 5.00 to 6.00 | 0 to 25 | 25 to 50 | CC(=O)Nc1ccn(C(=O)N2CCN(Cc3ccc(C(F)(F)F)cc3OC3CCN(C4CC4)CC3)CC2)n1 [Example 71, N-(1-(4-(2-(1-cyclopropylpiperidin-4-yloxy)-4-(trifluoromethyl)benzyl)piperazine-1-carbonyl)-1H-pyrazol-3-yl)acetamide]
15 | ≥ 7.00 | ≥ 75 | 5.00 to 6.00 | 0 to 25 | ≥ 75 | CC(=O)Nc1ccn(C(=O)N2CCN(Cc3ccc(C(F)(F)F)cc3N3CCC(F)CC3)CC2)n1 [Example 4, N-(1-(4-(2-(4-fluoropiperidin-1-yl)-4-(trifluoromethyl)benzyl)piperazine-1-carbonyl)-1H-pyrazol-3-yl)acetamide]
16 | ≥ 7.00 | ≥ 75 | 5.00 to 6.00 | 0 to 25 | 0 to 25 | CC(=O)Nc1ccn(C(=O)N2CCN(Cc3ccc(Cl)cc3-c3nnn[nH]3)CC2)n1 [Example 262, N-(1-(4-(4-chloro-2-(1H-tetrazol-5-yl)benzyl)piperazine-1-carbonyl)-1H-pyrazol-3-yl)acetamide]
